# Data from paper PMC4117522, “Proteasome Inhibitors Alter Levels of Intracellular Peptides in HEK293T and SH-SY5Y Cells” (PLoS ONE, 2014).
# Values joined by “and” are separate entries in the source; they are usually repeats but may differ in a detail not shown here. Identical values can stand only once. Residues, ends and D or L forms follow the SMILES beside them. *: point of attachment. Cbz = O=C(OCc1ccccc1)*
# Assays:
# HEK293T cells = assay: Quantitative peptidomics (TMAB isotopic labels, LC-MS/MS) of inhibitor-treated HEK293T cells; format: cell-based, human
# Method: (§1) HEK293T and SH-SY5Y cells were grown to 80–90% confluence in DMEM and RPMI supplemented with 10% fetal bovine serum and penicillin/streptomycin. A single plate of cells (150 mm×25 mm) was used for each group. At the start of the experiment, media were removed from the plates and cells were washed with DPBS (138 mM NaCl, 8.06 mM Na2HPO4, 2.67 mM KCl, 1.47 mM KH2PO4, 0.9 mM CaCl2 and 0.49 mM MgCl2). This was followed by addition of serum-free media containing the proteasome or aminopeptidase inhibitors, or 0.05% DMSO as a control for the inhibitors that were soluble in DMSO. Each experiment consisted of two control groups and two or three replicate groups of cells treated with one of the inhibitors. The cells were incubated at 37°C for 20 minutes, following which media containing the inhibitor was removed, cells were washed with DPBS, detached from the plate by scraping into DPBS (without trypsin), and centrifuged at 800×g for 5 min. The wash buffer was supplemented with the appropriate inhibitor at the same concentration as used for the treatment, thereby ensuring that the changes induced in peptide levels were not reversed during harvesting of cells due to possible dissociation of the reversible inhibitors. The wash time (including centrifugation) was 15 minutes, for a total treatment time of 35 minutes. After centrifugation, the cell pellet was resuspended in 1 ml of 80°C water and incubated in an 80°C water bath for 20 minutes to inactivate proteases. The mixture was again centrifuged (13,000×g, 30 min, 4°C) and was stored at −80°C overnight. For peptide extraction, the samples were thawed and centrifuged again. The lysate was subsequently cooled on ice and acidified with HCl to a final concentration of 10 mM. After 15 min incubation on ice, the lysate was centrifuged at 13,000×g for 30 min at 4°C. To the supernatant, 250 µL of dibasic sodium phosphate (0.4 M, pH 9.5) was added and the mixture was stored at −80°C until labeling.
# (§2) The labeling protocol has been earlier described in detail. Each group within an experiment (control/treated) was labeled with a different isotopic tag. The TMAB-NHS labels were dissolved in DMSO to a concentration of 400 µg/µL and 15 mg of label was used per 150 mm plate of cells. […] At the beginning, the pH of the peptide extract was adjusted to 9.5 with 1 M NaOH. Labeling was performed over 8 rounds; 4.69 µL of the label was added to the extract every 20 min. The pH was measured between each round and if necessary, brought back to 9.5 for the first five rounds. For rounds 6–8, the pH was not adjusted after the addition of the TMAB-NHS reagent. After the final round of label addition, the pH was adjusted to 9.5 again and the extracts were incubated at room temperature for 90 min. Thereafter, 30 µL of 2.5 M glycine was added to quench any unreacted label. Following 40 min incubation at room temperature, the labeled extracts for a single experiment were pooled and filtered through Amicon Ultracel-10 K units. It is important to ensure that only N-terminal amines and lysine side-chain amines of peptides are TMAB-labeled and not tyrosines. To hydrolyze any labeled tyrosine, 30 µL of a 2 M solution of hydroxylamine hydrochloride (pH 3.7) was added over three rounds to the pooled and filtered sample. The pH was measured after the addition of hydroxylamine and adjusted to 9.0 with 1 M NaOH. The samples were desalted through PepClean C-18 spin columns (Thermo Scientific, Rockford, IL, USA) by following manufacturer’s instructions. Peptides were eluted using 160 µL of 0.5% TFA and 70% acetonitrile, frozen at −80°C and then lyophilized in a vacuum centrifuge and stored at −80°C until analysis by mass spectrometry.
# (§3) The LC-MS/MS experiments were performed on a Synapt G2 mass spectrometer coupled to a NanoAcquity capillary liquid chromatography system (Waters Co., Milford, MA, USA).
# SH-SY5Y cells = assay: Quantitative peptidomics (TMAB isotopic labels, LC-MS/MS) of inhibitor-treated SH-SY5Y cells; format: cell-based, human; settings: 1 uM, 35', SH-SY5Y
# Method: as §1, §2, §3
smiles,measurement,setting,value
CC[C@H](C)[C@H](NC(=O)[C@H]([C@@H](C)CC)N(C)C(C)=O)C(=O)N[C@H](C(=O)N[C@@H](CC(C)C)C(=O)[C@@]1(C)CO1)[C@@H](C)O [Epox.],Relative Levels of peptide AAETVTKGGIMLPEKSQGKVLQA (HSPE1),"HEK293T cells; 0.2 uM, 1h, HEK",< 0.20
same,Relative Levels of peptide ADKVPKTAENFRAL (PPIA),"HEK293T cells; 0.2 uM, 1h, HEK",< 0.20
same,Relative Levels of peptide AGAAVDELGKVLTPTQV (PEBP1),"HEK293T cells; 0.2 uM, 1h, HEK",< 0.20
same,Relative Levels of peptide AKADGIVSKNF (RPS21),"HEK293T cells; 0.2 uM, 1h, HEK",< 0.20
same,Relative Levels of peptide APIKVGDAIPAVEVF (PRDX5),"HEK293T cells; 0.2 uM, 1h, HEK",< 0.20
same,Relative Levels of peptide APPTAYIDFARQK (TPI1),"HEK293T cells; 0.2 uM, 1h, HEK",0.58 and 0.64
same,Relative Levels of peptide ASQPDVDGFLVGGASLKPEFVDIINA (TPI1),"HEK293T cells; 0.2 uM, 1h, HEK",< 0.20
same,Relative Levels of peptide ASQPDVDGFLVGGASLKPEFVDIINAKQ (TPI1),"HEK293T cells; 0.2 uM, 1h, HEK",1.17 and 1.09
same,Relative Levels of peptide AVDGEPLGRVSF (PPIA),"HEK293T cells; 0.2 uM, 1h, HEK",< 0.20
same,Relative Levels of peptide Ac-AAPVDLELKKAFTEL (PFDN1),"HEK293T cells; 0.2 uM, 1h, HEK",< 0.20
same,Relative Levels of peptide Ac-ANLERTFIAIKPDGV (NME2),"HEK293T cells; 0.2 uM, 1h, HEK",< 0.20
same,Relative Levels of peptide Ac-ASKRALVIL (PARK7),"HEK293T cells; 0.2 uM, 1h, HEK",< 0.20
same,Relative Levels of peptide Ac-ASKRALVILA (PARK7),"HEK293T cells; 0.2 uM, 1h, HEK",< 0.20
same,Relative Levels of peptide Ac-MDTSRVQPIKL (RPS28),"HEK293T cells; 0.2 uM, 1h, HEK",< 0.20
same,Relative Levels of peptide Ac-MDTSRVQPIKLAR (RPS28),"HEK293T cells; 0.2 uM, 1h, HEK",0.95
same,Relative Levels of peptide Ac-SSEEGKLFVGGLNF (RBM3),"HEK293T cells; 0.2 uM, 1h, HEK",< 0.20
same,Relative Levels of peptide Ac-SYGRPPPDVEGMTSLKVDNL (SRSF2),"HEK293T cells; 0.2 uM, 1h, HEK",0.23 and 0.32
same,Relative Levels of peptide Ac-[…] (COX6B1),"HEK293T cells; 0.2 uM, 1h, HEK",< 0.20
same,Relative Levels of peptide EDENFILKHTGPGILSM (PPIA),"HEK293T cells; 0.2 uM, 1h, HEK",< 0.20
same,Relative Levels of peptide GAIRDIDL (SRSF1),"HEK293T cells; 0.2 uM, 1h, HEK",0.29 and 0.33
same,Relative Levels of peptide GFGDLKSPAGLQVL (EEF1B2),"HEK293T cells; 0.2 uM, 1h, HEK",< 0.20
same,Relative Levels of peptide GISTPEELGLDKV (COX5A),"HEK293T cells; 0.2 uM, 1h, HEK",< 0.20
same,Relative Levels of peptide GVQVETISPGDGRTFPKRGQT (FKBP1A),"HEK293T cells; 0.2 uM, 1h, HEK",0.72 and 0.45
same,Relative Levels of peptide KHTGPGILSM (PPIA),"HEK293T cells; 0.2 uM, 1h, HEK",< 0.20
same,Relative Levels of peptide PGIVELPTLEEL (NDUFA8),"HEK293T cells; 0.2 uM, 1h, HEK",< 0.20
same,Relative Levels of peptide SAMTEEAAVAIKAMAK (EIF5A),"HEK293T cells; 0.2 uM, 1h, HEK",0.36 and 0.21
same,Relative Levels of peptide SLGELIGTLNA (TPI1),"HEK293T cells; 0.2 uM, 1h, HEK",0.29 and < 0.20
same,Relative Levels of peptide VNPTVFFDI (PPIA),"HEK293T cells; 0.2 uM, 1h, HEK",< 0.20
same,Relative Levels of peptide AAETVTKGGIMLPEKSQGKVLQA (HSPE1),"HEK293T cells; 2 uM, 1h, HEK",< 0.20
same,Relative Levels of peptide ADKVPKTAENFRAL (PPIA),"HEK293T cells; 2 uM, 1h, HEK",< 0.20
same,Relative Levels of peptide AGAAVDELGKVLTPTQV (PEBP1),"HEK293T cells; 2 uM, 1h, HEK",< 0.20
same,Relative Levels of peptide AKADGIVSKNF (RPS21),"HEK293T cells; 2 uM, 1h, HEK",< 0.20
same,Relative Levels of peptide APIKVGDAIPAVEVF (PRDX5),"HEK293T cells; 2 uM, 1h, HEK",< 0.20
same,Relative Levels of peptide ASQPDVDGFLVGGASLKPEFVDIINA (TPI1),"HEK293T cells; 2 uM, 1h, HEK",< 0.20
same,Relative Levels of peptide ASQPDVDGFLVGGASLKPEFVDIINAKQ (TPI1),"HEK293T cells; 2 uM, 1h, HEK",< 0.20
same,Relative Levels of peptide AVDGEPLGRVSF (PPIA),"HEK293T cells; 2 uM, 1h, HEK",< 0.20
same,Relative Levels of peptide Ac-AAPVDLELKKAFTEL (PFDN1),"HEK293T cells; 2 uM, 1h, HEK",< 0.20
same,Relative Levels of peptide Ac-AEEGIAAGGVMDVNTALQEVLKT (RPS12),"HEK293T cells; 2 uM, 1h, HEK",0.61 and 0.42
same,Relative Levels of peptide Ac-ANLERTFIAIKPDGV (NME2),"HEK293T cells; 2 uM, 1h, HEK",< 0.20
same,Relative Levels of peptide Ac-ASKRALVIL (PARK7),"HEK293T cells; 2 uM, 1h, HEK",< 0.20
same,Relative Levels of peptide Ac-ASKRALVILA (PARK7),"HEK293T cells; 2 uM, 1h, HEK",< 0.20
same,Relative Levels of peptide Ac-MDTSRVQPIKL (RPS28),"HEK293T cells; 2 uM, 1h, HEK",< 0.20
same,Relative Levels of peptide Ac-MDTSRVQPIKLAR (RPS28),"HEK293T cells; 2 uM, 1h, HEK",0.64 and 0.94
same,Relative Levels of peptide Ac-MDTSRVQPIKLARVTKV (RPS28),"HEK293T cells; 2 uM, 1h, HEK",< 0.20
same,Relative Levels of peptide Ac-SSEEGKLFVGGLNF (RBM3),"HEK293T cells; 2 uM, 1h, HEK",< 0.20
same,Relative Levels of peptide Ac-SYGRPPPDVEGMTSLKVDNL (SRSF2),"HEK293T cells; 2 uM, 1h, HEK",< 0.20
same,Relative Levels of peptide EDENFILKHTGPGILSM (PPIA),"HEK293T cells; 2 uM, 1h, HEK",< 0.20
same,Relative Levels of peptide GESDDSILRLAKADGIVSKNF (RPS21),"HEK293T cells; 2 uM, 1h, HEK",< 0.20
same,Relative Levels of peptide GFGDLKSPAGLQVL (EEF1B2),"HEK293T cells; 2 uM, 1h, HEK",0.54 and 0.68
same,Relative Levels of peptide GISTPEELGLDKV (COX5A),"HEK293T cells; 2 uM, 1h, HEK",0.38 and 0.45
same,Relative Levels of peptide KHTGPGILSM (PPIA),"HEK293T cells; 2 uM, 1h, HEK",< 0.20
same,Relative Levels of peptide PGIVELPTLEEL (NDUFA8),"HEK293T cells; 2 uM, 1h, HEK",< 0.20
same,Relative Levels of peptide SAMTEEAAVAIKAMAK (EIF5A),"HEK293T cells; 2 uM, 1h, HEK",< 0.20
same,Relative Levels of peptide SLGELIGTLNA (TPI1),"HEK293T cells; 2 uM, 1h, HEK",0.52 and 0.30
same,Relative Levels of peptide VNPTVFFDI (PPIA),"HEK293T cells; 2 uM, 1h, HEK",< 0.20
CC(=O)N[C@@H](CSC(=O)[C@]1([C@@H](O)C(C)C)NC(=O)[C@H](C)[C@@H]1O)C(=O)O [Lactacystin],Relative Levels of peptide ADKVPKTAENFRAL (PPIA),SH-SY5Y cells,< 0.20
same,Relative Levels of peptide Ac-AAPVDLELKKAFTEL (PFDN1),SH-SY5Y cells,< 0.20
same,Relative Levels of peptide Ac-ASKRALVIL (PARK7),SH-SY5Y cells,0.25 and < 0.20 and 0.21
same,Relative Levels of peptide Ac-ASKRALVILA (PARK7),SH-SY5Y cells,0.52 and 0.32 and 0.42
same,Relative Levels of peptide Ac-MDTSRVQPIKL (RPS28),SH-SY5Y cells,0.47 and 0.49 and 0.51
same,Relative Levels of peptide Ac-SSEEGKLFVGGLNF (RBM3),SH-SY5Y cells,0.55 and 0.38 and 0.49
same,Relative Levels of peptide Ac-SYGRPPPDVEGMTSLKVDNL (SRSF2),SH-SY5Y cells,0.63 and 0.36 and 0.45
same,Relative Levels of peptide GAIRDIDL (SRSF1),SH-SY5Y cells,< 0.20
same,Relative Levels of peptide KHTGPGILSM (PPIA),SH-SY5Y cells,0.26 and 0.24 and 0.25
"CC(C)C[C@@H](C=O)NC(=O)[C@H](CC(C)C)NC(=O)[C@H](CC(C)C)NC(=O)OCc1ccccc1 [MG132, reference compound] (Cbz-Leu-Leu-Leu-aldehyde)",change in levels of intracellular peptides (peptidome),"HEK293T cells; HEK293T cells, 35 min, 2.5 µM MG132, 1 µM other inhibitors",the majority of peptides was greatly decreased
